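Protocol summary: plate cells (96-well), add compound at 5 concentrations, incubate 48 h, interpolate endpoints linearly. GI50 = concentration required for 50% inhibition of growth.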 Active and inactive are the calls of the source. Cut-off read from the data, not from the text of the source: active = GI50 up to about 1.1 µM and inactive = higher.
Assays:
Experiment in all cases: NCI tumour cell line growth inhibition, 48 h
BT-549 = tested on: BT-549
EKVX = tested on: EKVX
HOP-92 = tested on: HOP-92
Hs-578T = tested on: Hs-578T
K562 = tested on: K562
KM12 = tested on: KM12
MDA-MB-231 = tested on: MDA-MB-231
MDA-MB-435 = tested on: MDA-MB-435
NCI-H23 = tested on: NCI-H23
NCI-H522 = tested on: NCI-H522
PC-3 = tested on: PC-3
RPMI-8226 = tested on: RPMI-8226
RXF 393 = tested on: RXF 393
SK-MEL-28 = tested on: SK-MEL-28
SW-620 = tested on: SW-620
TK-10 = tested on: TK-10
U-251 = tested on: U-251
UACC-62 = tested on: UACC-62
SK-MEL-5 = tested on: SK-MEL-5
SK-MEL-2 = tested on: SK-MEL-2

Measured: GI50

Cc1nc(C)c(N2CCN(C(=O)NC(CCC(=O)O)C(=O)O)CC2)c(O)n1 (configuration not stated)
inactive: BT-549 > 100 µM | EKVX > 100 µM | HOP-92 > 100 µM | Hs-578T > 100 µM | K562 > 100 µM | KM12 > 100 µM | MDA-MB-231 > 100 µM | MDA-MB-435 > 100 µM | NCI-H23 > 100 µM | NCI-H522 > 100 µM | PC-3 > 100 µM | RPMI-8226 > 100 µM | RXF 393 > 100 µM | SK-MEL-28 > 100 µM | SW-620 > 100 µM | TK-10 > 100 µM | U-251 > 100 µM | UACC-62 > 100 µM

NNC(=O)c1ccc[n+](CCc2ccccc2)c1
inactive: BT-549 > 100 µM | EKVX > 100 µM | HOP-92 > 100 µM | Hs-578T > 100 µM | K562 > 100 µM | KM12 > 100 µM | MDA-MB-231 > 100 µM | MDA-MB-435 > 100 µM | NCI-H23 > 100 µM | NCI-H522 > 100 µM | PC-3 > 100 µM | RPMI-8226 > 100 µM | RXF 393 > 100 µM | SK-MEL-28 > 100 µM | SK-MEL-5 > 100 µM | SW-620 > 100 µM | TK-10 > 100 µM | U-251 > 100 µM | UACC-62 > 100 µM

COC(=O)c1c(O)ccc2c1c1c(n2C)C(=O)c2ccccc2C1=O
inactive: BT-549 10.4 µM | EKVX 42 µM | HOP-92 2.28 µM | Hs-578T 6.93 µM | K562 > 100 µM | KM12 57.7 µM | MDA-MB-231 10 µM | MDA-MB-435 33 µM | NCI-H23 19.7 µM | NCI-H522 18.4 µM | PC-3 23.3 µM | RPMI-8226 4.78 µM | RXF 393 15.4 µM | SK-MEL-28 32.7 µM | SK-MEL-2 25.4 µM | SK-MEL-5 30.9 µM | SW-620 59.4 µM | TK-10 26.7 µM | U-251 15.7 µM

CCOC(=O)CCC(NC(=O)Cc1ccc(Nc2nc3ccccc3nc2-c2ccccc2)cc1)C(=O)OCC (configuration not stated)
inactive: BT-549 46.8 µM | EKVX 63 µM | HOP-92 18.8 µM | Hs-578T 10.2 µM | K562 > 100 µM | KM12 > 100 µM | MDA-MB-231 16.9 µM | MDA-MB-435 > 100 µM | NCI-H23 20.7 µM | NCI-H522 20.7 µM | PC-3 17.4 µM | RXF 393 10.3 µM | SK-MEL-28 > 100 µM | SK-MEL-2 16.5 µM | SK-MEL-5 > 100 µM | SW-620 > 100 µM | TK-10 14 µM | U-251 15.1 µM | UACC-62 50.4 µM

CC(C)OP(=O)(OC(C)C)C(C(C)C)N(C)/C(F)=N/C(F)(F)F (configuration not stated)
inactive: BT-549 > 100 µM | EKVX > 100 µM | HOP-92 > 100 µM | Hs-578T > 100 µM | K562 60.5 µM | KM12 > 100 µM | MDA-MB-231 > 100 µM | MDA-MB-435 > 100 µM | NCI-H23 > 100 µM | NCI-H522 > 100 µM | PC-3 > 100 µM | RXF 393 > 100 µM | SK-MEL-28 > 100 µM | SK-MEL-5 > 100 µM | SW-620 > 100 µM | TK-10 > 100 µM | U-251 > 100 µM | UACC-62 > 100 µM

N#Cc1c(-c2ccc(Cl)cc2)c2c([nH]c1=O)-c1ccccc1SC2
inactive: BT-549 > 100 µM | EKVX 21.1 µM | HOP-92 17.7 µM | Hs-578T 67.9 µM | K562 32.9 µM | KM12 63.7 µM | MDA-MB-231 29.1 µM | MDA-MB-435 41 µM | NCI-H23 93.3 µM | PC-3 42.8 µM | RPMI-8226 16.7 µM | RXF 393 25.2 µM | SK-MEL-28 > 100 µM | SK-MEL-2 52.6 µM | SK-MEL-5 > 100 µM | SW-620 > 100 µM | TK-10 16.2 µM | U-251 25.6 µM | UACC-62 32.7 µM

O=C(c1cc(Cl)cc(Cl)c1)N(C(=O)N1CCN(c2ccccc2)CC1)c1ccccc1
inactive: BT-549 48.1 µM | EKVX 20.7 µM | HOP-92 34.5 µM | Hs-578T 56.1 µM | K562 10.5 µM | KM12 23.5 µM | MDA-MB-231 52.1 µM | MDA-MB-435 11.1 µM | NCI-H23 41.1 µM | NCI-H522 16.4 µM | PC-3 25.1 µM | RXF 393 37 µM | SK-MEL-28 56.1 µM | SK-MEL-2 24.8 µM | SK-MEL-5 21.6 µM | SW-620 30.3 µM | TK-10 54.6 µM | U-251 39.7 µM | UACC-62 24.9 µM

CC(=O)OCC1OC(n2c(C#N)cc(=O)[nH]c2=O)CC1OC(C)=O (configuration not stated)
inactive: BT-549 > 100 µM | EKVX > 100 µM | HOP-92 > 100 µM | Hs-578T > 100 µM | K562 > 100 µM | KM12 > 100 µM | MDA-MB-231 > 100 µM | MDA-MB-435 > 100 µM | NCI-H23 > 100 µM | NCI-H522 > 100 µM | PC-3 > 100 µM | RXF 393 > 100 µM | SK-MEL-28 > 100 µM | SK-MEL-2 > 100 µM | SK-MEL-5 > 100 µM | SW-620 > 100 µM | TK-10 > 100 µM | U-251 > 100 µM | UACC-62 > 100 µM

O=C(Nc1nn(C(=O)c2cccnc2)c(=O)s1)c1ccc(Cl)cc1
inactive: BT-549 > 100 µM | EKVX 50.6 µM | HOP-92 61.5 µM | Hs-578T 29.2 µM | K562 47.5 µM | KM12 61.7 µM | MDA-MB-231 > 100 µM | MDA-MB-435 > 100 µM | NCI-H23 > 100 µM | NCI-H522 21.7 µM | PC-3 61.1 µM | RXF 393 15.6 µM | SK-MEL-28 > 100 µM | SK-MEL-2 > 100 µM | SK-MEL-5 31.4 µM | SW-620 > 100 µM | TK-10 76.6 µM | U-251 74 µM | UACC-62 > 100 µM

COC(=O)C(Cc1c[nH]c2ccccc12)NP(=O)(O)OCC1OC(n2cc(Br)c(=O)[nH]c2=O)CC1O (configuration not stated)
inactive: BT-549 > 100 µM | EKVX > 100 µM | HOP-92 > 100 µM | Hs-578T > 100 µM | K562 > 100 µM | KM12 > 100 µM | MDA-MB-231 > 100 µM | MDA-MB-435 > 100 µM | NCI-H23 > 100 µM | NCI-H522 > 100 µM | PC-3 > 100 µM | RXF 393 > 100 µM | SK-MEL-28 > 100 µM | SK-MEL-2 > 100 µM | SK-MEL-5 > 100 µM | SW-620 > 100 µM | TK-10 > 100 µM | U-251 > 100 µM | UACC-62 > 100 µM

Cc1ccc(N2C(N)=C(C#N)C(C#N)(C#N)C2c2ccccc2)cc1 (configuration not stated)
inactive: BT-549 10.2 µM | EKVX 18 µM | HOP-92 7.78 µM | Hs-578T 21 µM | KM12 17.2 µM | MDA-MB-231 11.5 µM | MDA-MB-435 4.03 µM | NCI-H23 18.1 µM | NCI-H522 5.42 µM | PC-3 18.8 µM | RPMI-8226 11.4 µM | RXF 393 6.64 µM | SK-MEL-28 10.1 µM | SK-MEL-2 13.6 µM | SK-MEL-5 8.63 µM | SW-620 4.32 µM | TK-10 14.4 µM | U-251 17.3 µM | UACC-62 11.4 µM

Reference: ChEMBL document CHEMBL1201862, “PubChem BioAssay data set” (2004)
